Data reported in patent publication US9512120B2, “Microbicidally active imidazopyridine derivatives” (Syngenta Participations AG, priority 2013, dated 2016).

What was measured:
[1] = test system: Pyrenophora teres; test: Pyrenophora teres / barley / leaf disc preventative (net blotch); assay type: in vivo; settings: foliar, barley leaf segments cv Hasso, inoculated two days after application, assessed 5-7 days after application, read-out: control of Pyrenophora teres (disease control compared to untreated)
Description: Pyrenophora Teres/Barley/Leaf Disc Preventative (Net Blotch): Barley leaf segments cv Hasso are placed on agar in a 24-well plate and sprayed with formulated test compound diluted in water at an application rate of 200 ppm. The leaf segments are inoculated with a spore suspension of the fungus two days after application of the test solution. The inoculated leaf segments are incubated at 20° C. and 65% relative humidity under a light regime of 12/12 h (light/dark) in a climate cabinet and the activity of a compound is assessed as disease control compared to untreated when an appropriate level of disease damage appears in untreated check leaf segments (5-7 days after application).

[2] = test system: Botryotinia fuckeliana (Botrytis cinerea); test: Botryotinia fuckeliana (Botrytis cinerea) / liquid culture (gray mould); assay type: cell-based; settings: Vogels broth, 24° C., 3-4 days after application, read-out: control of Botryotinia fuckeliana (inhibition of growth, photometric)
Description: (§1) Botryotinia Fuckeliana (Botrytis cinerea)/Liquid Culture (Gray Mould): Conidia of the fungus from cryogenic storage were directly mixed into nutrient broth (Vogels broth). After placing a DMSO solution of test compound into a 96-well microtiter plate at an application rate of 200 ppm, the nutrient broth containing the fungal spores was added. The test plates were incubated at 24° C. and the inhibition of growth was determined photometrically 3-4 days after application.

[3] = test system: Mycosphaerella graminicola (Septoria tritici); test: Mycosphaerella graminicola (Septoria tritici) / liquid culture (Septoria blotch); assay type: cell-based; settings: Zymoseptoria tritici, PDB, 24° C., 4-5 days after application, read-out: control of Mycosphaerella graminicola (inhibition of growth, photometric)
Description: as §1, with “Mycosphaerella graminicola (Septoria tritici)/Liquid” for “Botryotinia Fuckeliana (Botrytis cinerea)/Liquid”, “(Septoria Blotch):” for “(Gray Mould):”, “(PDB potato dextrose” for “(Vogels”, “4-5” for “3-4”

[4] = test system: Gaeumannomyces graminis; test: Gaeumannomyces graminis / liquid culture (take-all of cereals); assay type: cell-based; settings: PDB, 24° C., 4-5 days after application, read-out: control of Gaeumannomyces graminis (inhibition of growth, photometric)
Description: (§2) Gaeumannomyces graminis/Liquid Culture (Take-all of Cereals): Mycelial fragments of the fungus from cryogenic storage were directly mixed into nutrient broth (PDB potato dextrose broth). After placing a DMSO solution of test compound into a 96-well microtiter plate at an application rate of 200 ppm, the nutrient broth Cp.33, containing the fungal spores is added. The test plates were incubated at 24° C. and the inhibition of growth was determined photometrically 4-5 days after application.

[5] = test system: Thanatephorus cucumeris (Rhizoctonia solani); test: Thanatephorus cucumeris (Rhizoctonia solani) / liquid culture (foot rot, damping-off); assay type: cell-based; settings: PDB, 24° C., 3-4 days after application, read-out: control of Thanatephorus cucumeris (inhibition of growth, photometric)
Description: Thanatephorus cucumeris (Rhizoctonia solani)/Liquid Culture (Foot Rot, Damping-Off): Mycelia fragments of a newly grown liquid culture of the fungus are directly mixed into nutrient broth (PDB potato dextrose broth). After placing a DMSO solution of the test compounds into a 96-well microtiter plate at an application rate of 200 ppm, the nutrient broth containing the fungal material was added. The test plates were incubated at 24° C. and the inhibition of growth was determined photometrically 3-4 days after application.

[6] = test system: Puccinia recondita f. sp. Tritici; test: Puccinia recondita f. sp. tritici / wheat / leaf disc preventative (brown rust); assay type: in vivo; settings: foliar, wheat leaf segments cv Kanzler, inoculated 1 day after application, assessed 7-9 days after application, read-out: control of Puccinia recondita f. sp. Tritici (percent disease control compared to untreated)
Description: Puccinia recondita f. Sp. Tritici/Wheat/Leaf Disc Preventative (Brown Rust): Wheat leaf segments cultivated variety (cv) Kanzler were placed on agar in 24-well plates and sprayed with formulated test compound diluted in water at an application rate of 200 ppm. The leaf disks were inoculated with a spore suspension of the fungus 1 day after application. The inoculated leaf segments were incubated at 19° C. and 75% relative humidity under a light regime of 12/12 h (light/dark) in a climate cabinet and the activity of a compound was assessed as percent disease control compared to untreated when an appropriate level of disease damage appears in untreated check leaf segments (7-9 days after application).

[7] = test system: Monographella nivalis (Microdochium nivale); test: Monographella nivalis (Microdochium nivale) / liquid culture (foot rot cereals); assay type: cell-based; settings: PDB, 24° C., 4-5 days after application, read-out: control of Monographella nivalis (inhibition of growth, photometric)
Description: as §2, with “Monographella nivalis (Microdochium nivale)/Liquid” for “Gaeumannomyces graminis/Liquid”, “(Foot Rot” for “(Take-all of”, “Conidia” for “Mycelial fragments”, “broth” for “broth Cp.33,”, “was” for “is”

[8] = test system: Glomerella lagenarium (Colletotrichum lagenarium); test: Glomerella lagenarium (Colletotrichum lagenarium) / liquid culture (anthracnose); assay type: cell-based; settings: Colletotrichum orbiculare, PDB, 24° C., 3-4 days after application, read-out: control of Glomerella lagenarium (inhibition of growth, photometric)
Description: as §2, with “Glomerella lagenarium (Colletotrichum lagenarium)/Liquid” for “Gaeumannomyces graminis/Liquid”, “(Anthracnose): Conidia” for “(Take-all of Cereals): Mycelial fragments”, “broth” for “broth Cp.33,”, “was” for “is”, “is measured” for “was determined”, “3-4” for “4-5”

Nc1ncnn1-c1nc2cnccc2n1C1CC1 [Compound 1, 2-(1-cyclopropylimidazo[4,5-c]pyridin-2-yl)-1,2,4-triazol-3-amine]
≥ 80%: pest or weed control at 200 ppm [1] | inhibition at 20 ppm [2] | inhibition at 20 ppm [3] | inhibition at 20 ppm [4] | inhibition at 20 ppm [5]

CCn1c(-n2ncnc2N)nc2cncc(-c3ccc(OC)nc3OC)c21 [Compound 56, 2-[7-(2,6-dimethoxypyridin-3-yl)-1-ethylimidazo[4,5-c]pyridin-2-yl]-1,2,4-triazol-3-amine]
≥ 80%: pest or weed control at 200 ppm [6] | pest or weed control at 200 ppm [1] | inhibition at 20 ppm [2] | inhibition at 20 ppm [3] | inhibition at 20 ppm [5]

CCn1c(-n2ncnc2N)nc2cncc(-c3ccc(OC)cc3OC)c21 [Compound 81, 2-[7-(2,4-dimethoxyphenyl)-1-ethylimidazo[4,5-c]pyridin-2-yl]-1,2,4-triazol-3-amine]
≥ 80%: pest or weed control at 200 ppm [6] | pest or weed control at 200 ppm [1] | inhibition at 20 ppm [2] | inhibition at 20 ppm [3] | inhibition at 20 ppm [4] | inhibition at 20 ppm [5] | inhibition at 20 ppm [7]

CCn1c(-n2ncnc2N)nc2cncc(-c3cccc(C)c3C)c21 [Compound 82, 2-[7-(2,3-dimethylphenyl)-1-ethylimidazo[4,5-c]pyridin-2-yl]-1,2,4-triazol-3-amine]
≥ 80%: pest or weed control at 200 ppm [6] | pest or weed control at 200 ppm [1] | inhibition at 20 ppm [2] | inhibition at 20 ppm [3] | inhibition at 20 ppm [4] | inhibition at 20 ppm [5]

CCn1c(-n2ncnc2N)nc2cncc(-c3cccc(Cl)c3Cl)c21 [Compound 87, 2-[7-(2,3-dichlorophenyl)-1-ethylimidazo[4,5-c]pyridin-2-yl]-1,2,4-triazol-3-amine]
≥ 80%: pest or weed control at 200 ppm [6] | pest or weed control at 200 ppm [1] | inhibition at 20 ppm [2] | inhibition at 20 ppm [3] | inhibition at 20 ppm [4] | inhibition at 20 ppm [5] | inhibition at 20 ppm [7]

CCn1c(-n2ncnc2N)nc2cncc(-c3ccc(F)cc3C)c21 [Compound 92, 2-[1-ethyl-7-(4-fluoro-2-methylphenyl)imidazo[4,5-c]pyridin-2-yl]-1,2,4-triazol-3-amine]
≥ 80%: pest or weed control at 200 ppm [1] | inhibition at 20 ppm [2] | inhibition at 20 ppm [3] | inhibition at 20 ppm [4] | inhibition at 20 ppm [5]

CCn1c(-n2ncnc2N)nc2cncc(-c3ccc(F)cc3OC)c21 [Compound 95, 2-[1-ethyl-7-(4-fluoro-2-methoxyphenyl)imidazo[4,5-c]pyridin-2-yl]-1,2,4-triazol-3-amine]
≥ 80%: pest or weed control at 200 ppm [6] | inhibition at 20 ppm [3] | inhibition at 20 ppm [4] | inhibition at 20 ppm [5] | inhibition at 20 ppm [7]

CCn1c(-n2ncnc2N)nc2cncc(-c3cccc(Cl)c3C)c21 [Compound 99, 2-[7-(3-chloro-2-methylphenyl)-1-ethylimidazo[4,5-c]pyridin-2-yl]-1,2,4-triazol-3-amine]
≥ 80%: pest or weed control at 200 ppm [6] | pest or weed control at 200 ppm [1] | inhibition at 20 ppm [2] | inhibition at 20 ppm [3] | inhibition at 20 ppm [4] | inhibition at 20 ppm [5]

Nc1ncnn1-c1nc2cncc(-c3ccccc3F)c2n1C1CCCCC1 [Compound 127, 2-[1-cyclohexyl-7-(2-fluorophenyl)imidazo[4,5-c]pyridin-2-yl]-1,2,4-triazol-3-amine]
≥ 80%: inhibition at 20 ppm [4]

CCn1c(-n2ncnc2N)nc2cncc(C#N)c21 [Compound 128, 2-(5-amino-1,2,4-triazol-1-yl)-1-ethylimidazo[4,5-c]pyridine-7-carbonitrile]
≥ 80%: inhibition at 20 ppm [4] | inhibition at 20 ppm [5]

CCCn1c(-n2ncnc2N)nc2cncc(C#N)c21 [Compound 129, 2-(5-amino-1,2,4-triazol-1-yl)-1-propylimidazo[4,5-c]pyridine-7-carbonitrile]
≥ 80%: inhibition at 20 ppm [8]

N#Cc1cncc2nc(-n3ncnc3N)n(C3CCCCC3)c12 [Compound 131, 2-(5-amino-1,2,4-triazol-1-yl)-1-cyclohexylimidazo[4,5-c]pyridine-7-carbonitrile]
≥ 80%: inhibition at 20 ppm [8]

CCCCCCO/N=C(\C)c1cncc2nc(-n3ncnc3N)n(CC)c12 [Compound 148]
≥ 80%: pest or weed control at 200 ppm [1] | inhibition at 20 ppm [8] | inhibition at 20 ppm [3] | inhibition at 20 ppm [5]

CCn1c(-n2ncnc2N)nc2cncc(/C(C)=N/OCC=C(C)C)c21 [Compound 157]
≥ 80%: pest or weed control at 200 ppm [6] | pest or weed control at 200 ppm [1] | inhibition at 20 ppm [8] | inhibition at 20 ppm [3] | inhibition at 20 ppm [5]

C/C=C/CO/N=C(\C)c1cncc2nc(-n3ncnc3N)n(CC)c12 [Compound 177]
≥ 80%: inhibition at 20 ppm [2] | inhibition at 20 ppm [3] | inhibition at 20 ppm [5] | inhibition at 20 ppm [7]

CCCn1c(-n2ncnc2N)nc2cncc(/C(C)=N/OC/C=C/Cl)c21 [Compound 183]
≥ 80%: pest or weed control at 200 ppm [6] | pest or weed control at 200 ppm [1] | inhibition at 20 ppm [2] | inhibition at 20 ppm [3] | inhibition at 20 ppm [4] | inhibition at 20 ppm [5] | inhibition at 20 ppm [7]

CCCn1c(-n2ncnc2N)nc2cncc(/C(C)=N/OC/C=C(\C)Cl)c21 [Compound 185]
≥ 80%: pest or weed control at 200 ppm [1] | inhibition at 20 ppm [2] | inhibition at 20 ppm [3] | inhibition at 20 ppm [5] | inhibition at 20 ppm [7]

CCCn1c(-n2ncnc2N)nc2cncc(/C(C)=N/OCC=C(Cl)Cl)c21 [Compound 187]
≥ 80%: pest or weed control at 200 ppm [6] | inhibition at 20 ppm [3] | inhibition at 20 ppm [4] | inhibition at 20 ppm [5]

CCCn1c(-n2ncnc2N)nc2cncc(/C(C)=N/OCC=C(C)C)c21 [Compound 189]
≥ 80%: pest or weed control at 200 ppm [6] | inhibition at 20 ppm [3] | inhibition at 20 ppm [5] | inhibition at 20 ppm [7]
